Source: US4049665A, “Unsymmetrical disulfides as antimicrobial agents” (Colgate-Palmolive Company, priority 1975, dated 1977)
Values after ≈ are worked out from the molar mass of the structure shown. Where two headings read alike, the source gives them in different places.

Assays:
P. ovale = experiment: two-fold serial dilution test, minimum inhibitory concentration (Table I); type: cell-based; conditions: Pityrosporum ovale, P. ovale (Yeast), 1% solution in 95% ethyl alcohol
Description: (§1) *Data indicates minimum inhibitory concentration in parts per million
(§2) tested by the two-fold serial dilution text method utilizing 1% solution
(§3) of the test material in 95% ethyl alcohol.

E. coli = experiment: as above; type: cell-based; conditions: Escherichia coli, read-out: minimum inhibitory concentration
Description: as §1, §2, §3

Str. mitis = experiment: as above; type: cell-based; conditions: Streptococcus mitis, Str. mitis (Gram Positive), 1% solution in 95% ethyl alcohol
Description: as §1, §2, §3

A. niger = experiment: as above; type: cell-based; conditions: Aspergillus niger, A. niger (Mold), 1% solution in 95% ethyl alcohol
Description: as §1, §2, §3

S. aureus = experiment: as above; type: cell-based; conditions: Staphylococcus aureus, read-out: minimum inhibitory concentration
Description: as §1, §2, §3

Ps. aeruginosa = experiment: as above; type: cell-based; conditions: Pseudomonas aeruginosa, Ps. aeruginosa (Gram Negative), 1% solution in 95% ethyl alcohol
Description: as §1, §2, §3

T. mentagrophytes = experiment: as above; type: cell-based; conditions: Trichophyton mentagrophytes, T. mentagrophytes (Mold), 1% solution in 95% ethyl alcohol
Description: as §1, §2, §3

C. albicans = experiment: as above; type: cell-based, Candidia albicans; conditions: Candida albicans, C. albicans (Yeast), 1% solution in 95% ethyl alcohol
Description: as §1, §2, §3

microorganisms = experiment: antimicrobial properties of shampoo compositions; conditions: substituted for 4-chlorphenyl 1-oxo-2-pyridyl disulfide in shampoo of Example VII
soil and foliage fungi = conditions: U.S. Pat. No. 2,922,790; soil and foliage fungicides; cited from earlier work

Molecule `[O-][n+]1ccccc1SSCc1ccc(Cl)c(Cl)c1` has an MIC (P. ovale) of 3.9 µg/mL (≈ 12.3 µM).

`[O-][n+]1ccccc1SSc1ccc(Cl)cc1` gave an MIC (P. ovale) of 3.9 µg/mL (≈ 14.5 µM).

Work on `[O-][n+]1ccccc1SSc1ccc(Cl)c(Cl)c1` yielded an MIC (P. ovale) of 15.6 µg/mL (≈ 51.3 µM).

In the case of `[O-][n+]1ccccc1SSc1ccccc1`, the MIC (E. coli; E. coli (Gram Negative), 1% solution in 95% ethyl alcohol, two-fold serial dilution) was 31.2 µg/mL (≈ 133 µM), the MIC (P. ovale) was 0.1 µg/mL (≈ 0.425 µM) and the MIC (Str. mitis) was 15.6 µg/mL (≈ 66.3 µM). The MIC (A. niger) was 15.6 µg/mL (≈ 66.3 µM), the MIC (S. aureus; S. aureus (Gram Positive), 1% solution in 95% ethyl alcohol, two-fold serial dilution) was 3.9 µg/mL (≈ 16.6 µM) and the MIC (Ps. aeruginosa) was 250 µg/mL (≈ 1060 µM). The MIC (T. mentagrophytes) was 15.6 µg/mL (≈ 66.3 µM) and the MIC (C. albicans) was over 1000 µg/mL.

Molecule `[O-][n+]1ccccc1SSc1cccc[n+]1[O-]` has an MIC (E. coli) of 62.5 µg/mL (≈ 248 µM), an MIC (Str. mitis) of 31.2 µg/mL (≈ 124 µM) and an MIC (A. niger) of 62.5 µg/mL (≈ 248 µM). For the same molecule, the MIC (S. aureus) was 7.8 µg/mL (≈ 30.9 µM), the MIC (Ps. aeruginosa) was 250 µg/mL (≈ 991 µM) and the MIC (C. albicans) was 31.2 µg/mL (≈ 124 µM).

For `COc1ccc(SSc2cccc[n+]2[O-])cc1` [p-methoxyphenyl 1oxo-2-pyridyl disulfide, p-Methoxyphenyl 1-oxo-2-pyridyl disulfide], the “antimicrobial properties of the resultant shampoo” value (from here on “antimicrobial properties”) (microorganisms) was “substantially similar antimicrobial properties”.

In the case of “pyridine-1-oxide trichloromethyl disulfide”, the “pesticidal properties” value (soil and foliage fungi) is given as “pesticidal properties desirable in soil and foliage fungicides”.

In the case of `CCCCCCSSc1cccc[n+]1[O-]` [hexyl 1-oxo-2-pyridyl disulfide, Hexyl 1-oxo-2-pyridyl disulfide], the “antimicrobial properties” value (microorganisms) was “substantially similar antimicrobial properties”.

Molecule `[O-][n+]1ccccc1SSCc1ccc(Cl)cc1` has an MIC (P. ovale) of 1.9 µg/mL (≈ 6.69 µM).

With Decenyl 1-oxo-2-pyridyl disulfide the “antimicrobial properties” value (microorganisms) was “substantially similar antimicrobial properties”.

With `CCCCCCCCCCCCSSc1cccc[n+]1[O-]` [dodecyl 1-oxo2-pyridyl disulfide, Dodecyl 1-oxo-2-pyridyl disulfide] the “antimicrobial properties” value (microorganisms) was “substantially similar antimicrobial properties”.

`[O-][n+]1ccccc1SSCc1ccc(Cl)cc1Cl` gave an MIC (E. coli) of 31.2 µg/mL (≈ 98 µM), an MIC (Str. mitis) of 7.8 µg/mL (≈ 24.5 µM) and an MIC (A. niger) of 15.6 µg/mL (≈ 49 µM). It also gave an MIC (S. aureus) of under 0.5 µg/mL, an MIC (Ps. aeruginosa) of 125 µg/mL (≈ 393 µM) and an MIC (T. mentagrophytes) of 3.9 µg/mL (≈ 12.3 µM). It also gave an MIC (C. albicans) of 7.8 µg/mL (≈ 24.5 µM).
